# According to patent US20160324174A1, “EDIBLE COATING FOR PRESERVING PIECES OF FRUIT, PRODUCTION METHOD AND APPLICATION THEREOF” (PRODUCTION AND INNOVATION ON EDIBLE COATINGS, S.L., priority 2014, published 2016):
# System: pieces of apple (Golden delicious)
# Test: Sensory evaluation of coated pieces of apple during 15 days storage at 4° C.
# Conditions: for Hydration: scale 1 to 10, 10 = complete hydration of the product surface; for Texture: scale 1 to 10, 10 = firm crisp texture; for Color: sensory scale 1 to 10, 10 = total absence of browning
# Protocol: Apples of the Golden delicious variety were used. They were washed on the surface and disinfected by immersion in a sodium hypochlorite (80 ppm) solution. After disinfection, the apples were cored and cut manually into […] (quarters), which were immediately coated. […] In any of the cases, the components were dissolved in water, by constant stirring, until completely dissolved, the temperature of both the water and of the solution being held at 6° C. until their use as coating. The pieces of apple were immersed for 1 minute in each of the solutions. In the case of the control sample, the pieces of apple were immersed in cold water for the same period of time. After this, the samples were drained for 1 minute in order to remove any excess coating that might remain on the surface of the fruit. Finally, the fruit was manually packaged in plastic tubs (PET), without the use of a modified atmosphere, and stored at 4° C. for 15 days. […] The scale of evaluation was from 1 to 10, 10 being the highest mark awarded to the parameter evaluated, namely, a product with the same quality as the freshly cut fruit, and 1 being a very bad quality product (rejectable).
# [1] = apple pieces, day 1 in storage at 4° C.
# [2] = apple pieces, day 8 in storage at 4° C.
# [3] = apple pieces, day 15 in storage at 4° C.
substance,measurement,setting,value
calcium ascorbate [Calcium ascorbate (6% p/p)],appearance of first symptoms of dehydration,apple pieces in storage at 4° C.,from the first week of storage
same,maintenance of the original color of the apple,"apple pieces, 15 days storage at 4° C.",throughout almost all of the period of storage
same,General appearance,[1],Good
same,Hydration,[1],10
same,Texture,[1],10
same,Color,[1],10
same,General appearance,[2],Dehydrated
same,Hydration,[2],5
same,Texture,[2],8
same,Color,[2],9
same,General appearance,[3],"Very dehydrated,"
same,Hydration,[3],4
same,Texture,[3],7
same,Color,[3],8
